From patent US20170304388A1, “NEW INDICATION OF CARDIOVASCULAR DRUGS FOR PREPARATION OF CANCER INHIBITION PHARMACEUTICAL COMPOSITION” (LAUNX BIOMEDICAL CO., LTD., priority 2014, published 2017) come the findings set out here.

Like-named read-outs stand apart in the source and are kept apart here.

What all share (format): cell-based
The test system of one assay is C-33A. In words: Cell viability analysis (WST-1), C-33A. As to conditions: Homo sapiens, C-33-A, 72 h, Table 4, repeated experiments, drug 10 μM, read-out: survival rate (viability) of cancer cells, C-33A. The method in brief: (§1)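 Absorbance at OD450 nm after WST-1 incubation gave the survival rate. Cells (3000/well) were exposed to drug at 10 μM for 72 hours, then given WST-1 diluted 9:1 in medium for 30 to 90 minutes at 37° C.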
In general terms: Tetrazolium assays rely on reduction of a dye to a coloured formazan, in cell work by metabolically active cells.

For the next assay, the system named is BxPC-3. The experiment in a line: Cell viability analysis (WST-1), BxPC-3. As to conditions: Homo sapiens, BXPC-3, 72 h, Table 4, repeated experiments, drug 10 μM, read-out: survival rate (viability) of cancer cells, BxPC-3. In short, it runs like this:
as §1

Another assay has as its system AsPC-1. In words: Cell viability analysis (WST-1), AsPC-1. The following applies: Homo sapiens, ASPC1, 72 h, Table 4, repeated experiments, drug 10 μM, read-out: survival rate (viability) of cancer cells, AsPC-1. The method in brief: as §1
Assay [1] has as its system MCF7 (Mammary Gland, Adenocarcinoma). In words: Cell viability analysis (WST-1), MCF7. As to conditions: Homo sapiens, MCF7, 72 h.
Another assay relates to 786-O. The experiment in a line: Cell viability analysis (WST-1), 786-O. The following applies: Homo sapiens, 786-0, 72 h, Table 4, repeated experiments, drug 10 μM, read-out: survival rate (viability) of cancer cells, 786-O. The method in brief:
as §1

The test system of assay [2] is PC3 (Prostate Adenocarcinoma). In words: Cell viability analysis (WST-1), PC3. The following applies: 72 h.

A word on the viability: it is a read-out of living cells in per cent, often relative to untreated cells. In the case of `CCC(C)(C)C(=O)O[C@H]1C[C@@H](C)C=C2C=C[C@H](C)[C@H](CC[C@@H]3C[C@@H](O)CC(=O)O3)[C@H]21` [Simvastatin (Zocor), Simvastatin], the viability at 10 µM in the assay on C-33A is 112%; with BxPC-3, 81.8%; in the assay on AsPC-1, 78.2%; in assay [1] (Table 3, drug 10 μM, WST-1, OD450 nm, read-out: survival rate (viability) of cancer cells, MCF7), 81.5%; in assay [1] (Table 4, repeated experiments, drug 10 μM, WST-1, read-out: survival rate (viability) of cancer cells, MCF-7) it was 88.8%; with 786-O it was 87.8%. Also, the viability at 10 µM in assay [2] (Table 3, drug 10 μM, WST-1, OD450 nm, read-out: survival rate (viability) of cancer cells, PC3) is 91.8%; in assay [2] (Table 4, repeated experiments, drug 10 μM, WST-1, read-out: survival rate (viability) of cancer cells, PC-3), 92.8%.
